This is an account of results in patent US11066381B2, “Urolithins-containing aqueous solution, dried solid composition thereof and production method therefor, and urolithins stabilizing method” (DAICEL CORPORATION, priority 2016, dated 2021).

The data set in a line: Stability improvement test for urolithin (residual ratio by HPLC after storage at 60° C.). The conditions noted are these: for Urolithin A residual ratio (%) (60° C.) 1 week later / Urolithin A residual ratio (%) (60° C.) 2 weeks later: aqueous solution with 10% ethanol, 10% glycerin, 0.005% urolithin A; for Urolithin A residual ratio (%) (60° C.) 1 week later: stored at 60° C. for 1 week; for Urolithin A residual ratio (%) (60° C.) 2 weeks later: stored at 60° C. for 2 weeks. The class given is physicochemical. Here is the method: The stability of urolithin can be studied by measuring the total amount of urolithin before storage and the total amount of urolithin after storage under a temperature condition of 60° C. for one week or two weeks, and then calculating the urolithin residual ratio (%) according to the following calculation equation. As the method for measuring urolithin, for example, the method using HPLC described in Examples can be used. Urolithin residual ratio (%)=(total amount of urolithin after storage/total amount of urolithin before storage)×100 [Calculation Equation]
A description is given below for a case where urolithin A was used as the urolithin. Analysis of urolithin A was carried out using HPLC. More specifically, urolithin A (manufactured by Dalton Farma) was dissolved in an appropriate solvent to prepare a solution, and the solution was analyzed under the following HPLC conditions. Using the purity (%) (A) and the peak area value (B) in the HPLC, the factor of urolithin A and the urolithin A concentration in the sample were calculated according to the following calculation equation (1) and calculation equation (2). (Calculation Equation for Factor of Urolithin A) Factor of urolithin A=(B)/(concentration of standard solution of urolithin A (mg/L)×(A)/100) (1) (Calculation Equation for Urolithin A Concentration in Sample) Urolithin A concentration in sample (mg/L)=peak area value of urolithin A in sample/factor of urolithin A (2)
To an aqueous solution containing 10% ethanol and 10% glycerin, urolithin A was added to a concentration of 0.005%, and then the urolithin A was dissolved therein. To this solution, collagen (Hanamai) was added to a concentration of 0.5% to prepare a urolithin A-containing aqueous solution. The urolithin A content in the urolithin A-containing aqueous solution was measured after one week of storage and after two weeks of storage under a temperature condition of 60° C. By comparing the urolithin A contents measured before and after the storage, the residual ratio was calculated to evaluate the stability.
The same operation as in Example 1 was carried out except that collagen was not added, to provide a control as Comparative Example 1.
The residual ratio of urolithin A was calculated according to the following calculation equation (3). Urolithin residual ratio (%)=(content of urolithin A after storage/content of urolithin A before storage)×100 (3)

Setting [1] is: collagen 0% (Comparative Example 1).

For the compound `O=c1oc2cc(O)ccc2c2ccc(O)cc12` [Urolithin A, urolithin A], under setting [1], the “Urolithin A residual ratio (%) (60° C.) 1 week later” value stood at 66.9% and the “Urolithin A residual ratio (%) (60° C.) 2 weeks later” value worked out at 45.0%. Further, under “collagen 0.5% (Example 1)”, the “Urolithin A residual ratio (%) (60° C.) 1 week later” value was determined as 92.4% and the “Urolithin A residual ratio (%) (60° C.) 2 weeks later” value was found to be 92.2%. For the setting “in the presence of collagen versus without collagen, storage at 60° C.”, the “stability of urolithin A” value is on record as “increases in the presence of collagen”.
